In US20250034216A1, “STEREOSELECTIVE COVALENT LIGANDS FOR ONCOGENIC AND IMMUNOLOGICAL PROTEINS” (The Scripps Research Institute, priority 2021, published 2025):

Assays:
CHUK_C406 = target: T1, CHUK_C406 (Homo sapiens, UniProt O15111); assay: IA-DTB cysteine engagement; type: binding; conditions: 22Rv1 cells, 20 μM probe, 1 h, relative to DMSO
T1 construct: endogenous in cells; host or cells: 22Rv1
T1 sequence (O15111 1-745): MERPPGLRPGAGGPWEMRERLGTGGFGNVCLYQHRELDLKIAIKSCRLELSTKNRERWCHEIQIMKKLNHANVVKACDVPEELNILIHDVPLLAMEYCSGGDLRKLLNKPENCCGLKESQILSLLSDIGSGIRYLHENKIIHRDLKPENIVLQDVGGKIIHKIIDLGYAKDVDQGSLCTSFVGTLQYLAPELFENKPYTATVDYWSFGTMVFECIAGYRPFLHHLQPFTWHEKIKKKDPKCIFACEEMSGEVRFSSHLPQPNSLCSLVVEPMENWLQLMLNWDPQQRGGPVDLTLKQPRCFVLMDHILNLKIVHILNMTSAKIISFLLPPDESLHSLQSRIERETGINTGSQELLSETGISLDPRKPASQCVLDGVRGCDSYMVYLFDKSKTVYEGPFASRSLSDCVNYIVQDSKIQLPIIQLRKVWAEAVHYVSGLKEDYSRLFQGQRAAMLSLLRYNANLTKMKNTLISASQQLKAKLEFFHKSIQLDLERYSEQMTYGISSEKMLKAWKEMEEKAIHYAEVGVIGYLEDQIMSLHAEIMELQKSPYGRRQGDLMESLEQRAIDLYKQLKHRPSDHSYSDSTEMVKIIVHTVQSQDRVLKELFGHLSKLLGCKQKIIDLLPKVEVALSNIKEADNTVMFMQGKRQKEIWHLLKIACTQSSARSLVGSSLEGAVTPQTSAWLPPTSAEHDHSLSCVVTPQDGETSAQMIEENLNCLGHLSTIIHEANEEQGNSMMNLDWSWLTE
Outline: (§1)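 Probe-exposed cells were lysed, IA-DTB-labeled, trypsinized and streptavidin-enriched. Multiplexed TMT quantitation gave engagement ratios versus DMSO, with non-tryptic peptides excluded and intensities normalized to median summed signal.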

ABCB8_C462 = target: T2, ABCB8_C462 (Homo sapiens, UniProt Q9NUT2); assay: IA-DTB cysteine engagement; type: binding; conditions: 22Rv1 cells, 20 μM probe, 1 h, relative to DMSO
T2 construct: endogenous in cells; host or cells: 22Rv1
T2 sequence (Q9NUT2 26-735): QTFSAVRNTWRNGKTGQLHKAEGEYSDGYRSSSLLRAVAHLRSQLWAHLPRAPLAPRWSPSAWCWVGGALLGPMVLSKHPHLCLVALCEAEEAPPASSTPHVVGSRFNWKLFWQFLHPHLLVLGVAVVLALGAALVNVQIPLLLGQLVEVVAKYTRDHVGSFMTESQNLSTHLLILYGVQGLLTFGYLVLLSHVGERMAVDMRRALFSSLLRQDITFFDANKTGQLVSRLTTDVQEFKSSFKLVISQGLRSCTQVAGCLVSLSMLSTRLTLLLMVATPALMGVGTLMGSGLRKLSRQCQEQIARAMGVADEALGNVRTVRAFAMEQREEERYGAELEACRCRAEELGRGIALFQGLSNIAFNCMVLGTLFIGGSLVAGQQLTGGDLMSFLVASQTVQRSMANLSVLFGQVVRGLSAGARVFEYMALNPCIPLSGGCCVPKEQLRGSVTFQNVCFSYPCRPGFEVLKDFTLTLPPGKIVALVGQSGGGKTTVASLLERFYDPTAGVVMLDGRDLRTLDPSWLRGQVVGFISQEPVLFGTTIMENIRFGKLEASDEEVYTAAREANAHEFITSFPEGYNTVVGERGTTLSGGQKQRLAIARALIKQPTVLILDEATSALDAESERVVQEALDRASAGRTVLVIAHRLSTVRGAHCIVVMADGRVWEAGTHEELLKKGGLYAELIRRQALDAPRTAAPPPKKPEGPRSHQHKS
Outline: as §1

| SMILES | % engagement CHUK_C406 (CHUK_C406) [%] | % engagement ABCB8_C462 (ABCB8_C462) [%] |
| --- | --- | --- |
| C=CC(=O)N1C[C@@H](c2ccc(Br)cc2)[C@H]1C(=O)Nc1cccc2cccnc12 [MY-1A, (2S,3R)-1-acryloyl-3-(4-bromophenyl)-N-(quinolin-8-yl)azetidine-2-carboxamide] | 51.5 | 28.5 |
| C=CC(=O)N1C[C@H](c2ccc(Br)cc2)[C@@H]1C(=O)Nc1cccc2cccnc12 [MY-1B, (2R,3S)-1-acryloyl-3-(4-bromophenyl)-N-(quinolin-8-yl)azetidine-2-carboxamide] | 28.5 | 39 |
| C=CC(=O)N1C[C@H](c2ccc(Br)cc2)[C@H]1C(=O)Nc1cccc2cccnc12 [MY-3A, (2S,3S)-1-acryloyl-3-(4-bromophenyl)-N-(quinolin-8-yl)azetidine-2-carboxamide] | 0 | 19.5 |
| C=CC(=O)N1C[C@H](c2ccc(Br)cc2)[C@H]1C(=O)Nc1cccc2cccnc12 [MY-3B, (2S,3S)-1-acryloyl-3-(4-bromophenyl)-N-(quinolin-8-yl)azetidine-2-carboxamide] | 97 | 73.25 |
